We go through ten molecules from PMC7816213 (Journal of medicinal chemistry, 2020).

Where only a bound is given, the exact number is not on record here.

The target in data set [1] is T1, STK17B (Homo sapiens, UniProt O94768).
T1 sequence (O94768 1-372): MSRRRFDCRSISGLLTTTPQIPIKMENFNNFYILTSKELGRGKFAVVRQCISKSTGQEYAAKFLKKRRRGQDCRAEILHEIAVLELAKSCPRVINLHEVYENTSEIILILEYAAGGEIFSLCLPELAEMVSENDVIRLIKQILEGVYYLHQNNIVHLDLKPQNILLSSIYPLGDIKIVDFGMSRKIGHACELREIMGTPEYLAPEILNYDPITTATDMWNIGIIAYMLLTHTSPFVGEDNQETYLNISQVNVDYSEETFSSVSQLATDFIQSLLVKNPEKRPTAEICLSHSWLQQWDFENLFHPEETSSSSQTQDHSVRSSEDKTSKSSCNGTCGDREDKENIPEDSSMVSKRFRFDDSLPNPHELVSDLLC
As to the kind of experiment: NanoBRET target engagement in HEK293 cells, STK17B. Format: cell-based. For orientation: In BRET a luciferase serves as donor, and the signal depends on an acceptor being close.

For data set [2], the target named is T1, STK17B. The note with it: KinaseSeeker IC50, compared with 4.
A further data set relates to DAPK family. The following applies: read-out: IC50 on the DAPK family; cited from earlier work.
A short description of a further data set: Microsomal stability. The following applies: for Microsomal stability (%): % compound remaining in mouse liver microsomes at 30 min. For orientation: Microsomes from liver hold many membrane-bound enzymes, among them those of drug oxidation.
Another data set concerns Tpl2. The note with it: read-out: Tpl2 IC50; Reported by Ni et al; cited from earlier work.
Data set [3] deals with T1, STK17B.
Data set [4] addresses T1, STK17B. The experiment in a line: biochemical.
In the next data set the target is T2, STK17A (Homo sapiens, UniProt Q9UEE5).
T2 sequence (Q9UEE5 1-414): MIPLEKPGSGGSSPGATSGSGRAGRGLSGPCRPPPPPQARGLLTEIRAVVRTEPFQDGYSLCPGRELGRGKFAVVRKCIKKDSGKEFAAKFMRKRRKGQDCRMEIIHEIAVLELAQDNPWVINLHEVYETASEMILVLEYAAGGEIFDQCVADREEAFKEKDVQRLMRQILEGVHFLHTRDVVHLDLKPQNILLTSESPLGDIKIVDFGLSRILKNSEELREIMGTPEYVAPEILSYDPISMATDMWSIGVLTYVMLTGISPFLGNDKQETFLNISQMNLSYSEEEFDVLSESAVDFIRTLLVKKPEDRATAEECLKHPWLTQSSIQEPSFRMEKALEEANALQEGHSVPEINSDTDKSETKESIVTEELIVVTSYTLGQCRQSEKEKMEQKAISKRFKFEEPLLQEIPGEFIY
As to the kind of experiment: Eurofins enzyme inhibition assay, STK17A. In kind it is biochemical.

Data set [5] has as its target T1, STK17B. As to the kind of experiment: DiscoverX KINOMEscan binding, STK17B. The following applies: DiscoverX binding assay.
The target in data set [6] is 403 wild type human kinases. The experiment in a line: DiscoverX KINOMEscan scanMAX panel. In kind it is binding. The note with it: for kinases with >75% displacement of the immobilized ligand: scanMAX panel of 403 wild type human kinases at 1 μM.

Turning to `CSc1cccc(-c2cc3ncnc(SCC(=O)O)c3s2)c1` [Compound 11b, 2-((6-(3-(Methylthio)phenyl)thieno[3,2-d]pyrimidin-4-yl)thio)acetic acid], at STK17B [1] (NanoBRET IC50, compared with 4), the “fold less potent than 4 in the STK17B cell assay” value is “about 2.5 fold”. Also, at STK17B [2], the “fold less potent than 4 in the STK17B binding assay” value was “about 2.5 fold”.
What is called IC50 is the point on the concentration scale where inhibition reaches its midpoint. For the molecule `CN1CCN(c2ccc3nc(-c4c(N)c5c(F)cccc5[nH]c4=O)[nH]c3c2)CC1` [dovitinib], the IC50 in the data set with DAPK family is 1000 to 5000 nM.
For the molecule `O=C(O)CSc1ncnc2cc(-c3cccc(N4CCOCC4)c3)sc12` [Compound 11o, 2-((6-(3-Morpholinophenyl)thieno[3,2-d]pyrimidin-4-yl)thio)acetic acid], the “Microsomal stability (%)” value in the data set “Microsomal stability” is reported as over 50%.
As for `O=C(O)CSc1ncnc2cc(-c3ccc(N4CCOCC4)cc3)sc12` [Compound 11p, 2-((6-(4-Morpholinophenyl)thieno[3,2-d]pyrimidin-4-yl)thio)acetic acid], the “Microsomal stability (%)” value in the data set “Microsomal stability” is reported as over 50%.
On to `COc1ccc(-c2cc3ncnc(SCC(=O)O)c3s2)cc1F` [Compound 11z, 2-((6-(3-Fluoro-4-methoxyphenyl)thieno[3,2-d]pyrimidin-4-yl)thio)acetic acid], for which the “drop in cell potency” value on STK17B [1] (NanoBRET, compared with 11y) is 1.3 fold.
Turning to `CSc1ccc(-c2cc3ncnc(SCC(=O)O)c3s2)cc1` [Compound 4, 2-((6-(4-(Methylthio)phenyl)thieno[3,2-d]pyrimidin-4-yl)thio)acetic acid], the “compound consumed in mice liver microsomes” value in the data set “Microsomal stability” (After 30 minutes) stood at 100%. In addition, in the data set on Tpl2, the IC50 was 3400 nM.
With `O=C(O)COc1ncnc2cc(-c3ccc4[nH]ncc4c3)sc12` [Compound 6, reference compound], the half-inhibitory concentration (IC50) with Tpl2 is 1000 nM.
In the case of `O=C(O)CSc1ncnc2cc(-c3cc4ccccc4s3)sc12` [Compound 11s, 2-((6-(Benzo[b]thiophen-2-yl)thieno[3,2-d]pyrimidin-4-yl)thio)acetic acid], at STK17B [3] (enzyme assays), the “selectivity for STK17B over STK17A” value is on record as over 100 fold and the “selectivity for STK17B over all of the other kinases tested” value was over 100 fold. This molecule also showed an IC50 at STK17B [4] of 43 ± 3.5 nM. In addition, the “Microsomal stability (%)” value in “Microsomal stability” is over 50%. The molecule also came in with an IC50 against STK17A of 5000 to 9000 nM. For the same molecule, at STK17B [5], the “selectivity over CAMKK1 and CAMKK2” value was under 10 fold. Moreover, the “selectivity for STK17B over CAMKK2 in cells” value at STK17B [1] (NanoBRET target engagement assays) is over 10 fold. For the same molecule, the “kinases with >75% displacement of the immobilized ligand” value in [6] is “Eight”.
Consider `O=C(O)CSc1ncnc2cc(-c3ccc(C4CC4)cc3)sc12` [Compound 11h, 2-((6-(4-Cyclopropylphenyl)thieno[3,2-d]pyrimidin-4-yl)thio)acetic acid], for which the “Microsomal stability (%)” value in the data set “Microsomal stability” is recorded as over 50%.
In the case of `O=C(O)CSc1ncnc2sc(-c3cc4ccccc4s3)cc12` [Compound 19g, 2-((6-(Benzo[b]thiophen-2-yl)thieno[2,3-d]pyrimidin-4-yl)thio)acetic acid], the “fold less active as an inhibitor of STK17B than the chemical probe 11s” value on STK17B [3] (19g compared to 11s (Table 9)) is over 100 fold. Besides, in data set [6] (scanMAX panel at 1 μM), the “kinases with >65% displacement of the immobilized ligand” value was determined as 5. The “kinases with >75% displacement of the immobilized ligand” value in [6] was “no kinase”.
